Results from ChEMBL document CHEMBL3868637, “Treatment of HIV Infections with HIV Integrase Inhibitors” (ACS Med Chem Lett, 2017).

Tests used:
[1] = Inhibition of HIV 3B integrase infected in human MT4 cells assessed as reduction in viral replication after 5 days by CellTiter-Glo assay; format: cell-based; settings: Human immunodeficiency virus 1, 3B, MT4, 120 h
[2] = Cytotoxicity against human MT4 cells assessed as reduction in cell viability measured after 5 days by CellTiter-Glo assay; format: toxicity, cell-based

Structure (SMILES) | EC50 [1] [nM] | CC50 at 120 h [2] [nM]
C[C@H]1CCO[C@]23CCC[C@H]2n2cc(C(=O)NCc4ccc(F)c(Cl)c4F)c(=O)c(O)c2C(=O)N13 | 11.8 | 17500
COc1c2n(cc(C(=O)NCc3ccc(F)c(Cl)c3F)c1=O)[C@H]1CCC[C@]13OCCN3C2=O | 2.53 | 4940
O=C(NCc1ccc(F)c(Cl)c1F)c1cn2c(c(O)c1=O)C(=O)N1CC=CC[C@]13CCOC[C@H]23 | 4.62 | 8020
C[C@@H]1CO[C@@]23CCOC[C@@H]2n2cc(C(=O)NCc4ccc(F)c(Cl)c4F)c(=O)c(O)c2C(=O)N13 | 1.82 | 7530
O=C(NCc1ccc(F)c(Cl)c1F)c1cn2c(c(O)c1=O)C(=O)N1CCS[C@]13COCC[C@H]23 | 1.2 | 10800
O=C(NCc1c(F)cc(F)cc1F)c1cn2c(c(O)c1=O)C(=O)N1CCCC[C@]13COCC[C@H]23 | 1.94 | 33600
